Results taken from ChEMBL document CHEMBL1201862, “PubChem BioAssay data set” (2004).
Active and inactive are the calls of the source.

How the values were obtained:
[1] = Luminescence Cell-Based Dose Response HTS to Identify Activators of Luciferase Translation or Activity in H4 […] Cells. [Related pubchem assays: 1829 (Project Summary), 1814 (Primary HTS)]; assay type: functional
[2] = Luminescence Cell-Based Dose Confirmation HTS to Identify Activators of 5'UTR Stem-Loop Driven Alpha-Synuclein mRNA Translation in H4 Neuroglioblastoma Cells. [Related pubchem assays: 1829 (Project Summary), 1814 (Primary HTS)]; assay type: functional
[3] = tested on: H4; test: Luminescence Cell-Based Dose Response HTS to Identify Activators of 5'UTR Stem-Loop Driven Prion Protein mRNA Translation in H4 Neuroglioblastoma Cells. [Related pubchem assays: 1829 (Project Summary), 1814 (Primary HTS)]; assay type: functional; conditions: Homo sapiens
[4] = molecular target: Cytochrome P450 2C19 (Homo sapiens, UniProt P33261); test: Cytochrome panel assay with activity outcomes. Panel member name: p450-cyp2c19 Compounds with AC50 equal or less than 10 uM are considered active; assay type: functional
[5] = molecular target: T1, Cytochrome P450 1A2 (Homo sapiens, UniProt P05177);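 further: PubChem cytochrome P450 panel assay, CYP1A2 panel member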
T1 sequence (P05177 whole entry): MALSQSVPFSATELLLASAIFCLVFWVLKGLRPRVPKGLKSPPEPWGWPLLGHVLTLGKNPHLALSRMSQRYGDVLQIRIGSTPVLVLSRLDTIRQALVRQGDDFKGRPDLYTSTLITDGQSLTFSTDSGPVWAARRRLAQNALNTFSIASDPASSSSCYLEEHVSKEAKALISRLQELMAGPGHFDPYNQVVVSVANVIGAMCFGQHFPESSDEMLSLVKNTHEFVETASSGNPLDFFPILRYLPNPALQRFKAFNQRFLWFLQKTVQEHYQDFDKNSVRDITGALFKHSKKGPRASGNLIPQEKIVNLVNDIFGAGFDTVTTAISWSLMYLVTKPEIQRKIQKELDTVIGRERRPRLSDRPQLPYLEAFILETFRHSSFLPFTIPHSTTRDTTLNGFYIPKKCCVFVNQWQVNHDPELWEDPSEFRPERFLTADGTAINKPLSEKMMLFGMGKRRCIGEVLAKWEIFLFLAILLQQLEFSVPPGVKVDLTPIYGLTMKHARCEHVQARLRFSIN

[6] = molecular target: Luciferin 4-monooxygenase (Photinus pyralis, UniProt P08659); test: firefly luciferase enzyme inhibitors, dose response, biochemical, luminescence (AID 1891)
[7] = Luminescence Cell-Based Dose Confirmation HTS to Identify Inhibitors of Platelet Dense Granule Release. [Related pubchem assays: 1663 (Primary HTS), 1678 (Summary of Project)]; assay type: functional
[8] = molecular target: T2, Zinc finger protein mex-5 (Caenorhabditis elegans, UniProt Q9XUB2); test: MEX-5/TCR-2 RNA interaction inhibitors, dose response, biochemical, C. elegans, fluorescence polarization (AID 1960)
T2 sequence (Q9XUB2 whole entry): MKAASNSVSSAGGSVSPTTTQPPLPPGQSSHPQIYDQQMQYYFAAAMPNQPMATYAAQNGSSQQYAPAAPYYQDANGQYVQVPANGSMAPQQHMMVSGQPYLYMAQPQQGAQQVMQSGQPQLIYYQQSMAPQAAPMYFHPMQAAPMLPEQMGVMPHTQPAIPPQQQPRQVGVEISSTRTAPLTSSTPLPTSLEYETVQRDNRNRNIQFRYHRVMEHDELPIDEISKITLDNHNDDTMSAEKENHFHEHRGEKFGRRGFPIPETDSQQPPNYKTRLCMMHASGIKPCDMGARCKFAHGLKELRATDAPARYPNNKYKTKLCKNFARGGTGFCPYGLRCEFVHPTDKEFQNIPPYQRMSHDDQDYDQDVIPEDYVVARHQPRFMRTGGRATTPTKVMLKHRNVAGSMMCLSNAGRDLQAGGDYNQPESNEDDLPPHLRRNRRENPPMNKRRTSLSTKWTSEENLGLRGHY

[9] = molecular target: T3, RNA-binding protein pos-1 (Caenorhabditis elegans, UniProt G5EF15); test: inhibitors of POS-1/mex-3 RNA binding, dose response, biochemical, fluorescence polarization (AID 1964);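 further: purified POS-1 fused to maltose binding protein made in E. coli; potency of compounds blocking POS-1 binding to fluorescent RNA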
T3 sequence (G5EF15 whole entry): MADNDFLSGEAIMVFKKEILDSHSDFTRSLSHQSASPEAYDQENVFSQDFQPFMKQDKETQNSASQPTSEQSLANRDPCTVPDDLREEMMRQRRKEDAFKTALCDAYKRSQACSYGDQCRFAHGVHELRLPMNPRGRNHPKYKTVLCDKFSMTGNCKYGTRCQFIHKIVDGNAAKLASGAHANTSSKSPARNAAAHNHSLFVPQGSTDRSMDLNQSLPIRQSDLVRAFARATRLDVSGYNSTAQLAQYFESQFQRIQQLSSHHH

[10] = molecular target: T4, Calpain-2 catalytic subunit (Sus scrofa, UniProt P43367); test: pig calpain II inhibitor potency, dose response, biochemical, fluorogenic peptide substrate (AID 1420); assay type: functional
T4 sequence (P43367 whole entry): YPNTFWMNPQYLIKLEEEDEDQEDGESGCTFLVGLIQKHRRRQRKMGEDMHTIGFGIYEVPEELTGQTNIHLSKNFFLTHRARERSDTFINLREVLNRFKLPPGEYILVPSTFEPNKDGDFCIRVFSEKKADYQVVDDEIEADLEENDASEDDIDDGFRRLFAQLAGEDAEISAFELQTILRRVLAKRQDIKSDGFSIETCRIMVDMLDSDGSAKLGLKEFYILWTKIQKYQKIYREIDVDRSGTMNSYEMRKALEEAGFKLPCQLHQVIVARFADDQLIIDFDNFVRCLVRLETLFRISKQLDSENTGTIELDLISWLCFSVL

[11] = molecular target: Cytochrome P450 2C9 (Homo sapiens, UniProt P11712)
[12] = molecular target: Cytochrome P450 3A4 (Homo sapiens, UniProt P08684);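 further: CYP3A4 tested as one member of a cytochrome P450 panel screen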
[13] = molecular target: Large T antigen (Simian virus 40, UniProt P03070); assay type: functional, Betapolyomavirus macacae;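 further: Confirmatory-stage PubChem screen for compounds that inhibit SV40 T antigen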
[14] = inhibitors of clade B AD8 Env fusion, dose response, cell-based, cherry-pick (AID 652062); assay type: functional;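 further: luciferase signal from cell-cell fusion driven by HIV-1 clade B AD8 Env; potency is for inhibitors of fusion seen as a drop in luminescence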
[15] = inhibitors of HIV Env-driven cell fusion, dose response, cherry-pick (AID 652057); assay type: functional, cell-based
[16] = control 3'UTR Renilla luciferase suppression, dose response, counter-screen for Shn3 inhibitor project, cell-based, Clone20-Shn3RL, cherry-picked (AID 624133); assay type: functional
[17] = HepG2 cell cytotoxicity, dose response, cytotoxicity control for Shn3 inhibitor project, CellTiter-Glo, cherry-picked (AID 624134); assay type: functional, cell-based
[18] = Shn3 3'UTR reporter inhibitors, dose response, cell-based, Clone20 osteoblasts, firefly luciferase, cherry-picked (AID 624132); assay type: functional;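 further: firefly luciferase luminescence from reporter carrying the Shn3 3'UTR in osteoblasts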

Cytochrome P450 2C19, sequence (P33261 whole entry): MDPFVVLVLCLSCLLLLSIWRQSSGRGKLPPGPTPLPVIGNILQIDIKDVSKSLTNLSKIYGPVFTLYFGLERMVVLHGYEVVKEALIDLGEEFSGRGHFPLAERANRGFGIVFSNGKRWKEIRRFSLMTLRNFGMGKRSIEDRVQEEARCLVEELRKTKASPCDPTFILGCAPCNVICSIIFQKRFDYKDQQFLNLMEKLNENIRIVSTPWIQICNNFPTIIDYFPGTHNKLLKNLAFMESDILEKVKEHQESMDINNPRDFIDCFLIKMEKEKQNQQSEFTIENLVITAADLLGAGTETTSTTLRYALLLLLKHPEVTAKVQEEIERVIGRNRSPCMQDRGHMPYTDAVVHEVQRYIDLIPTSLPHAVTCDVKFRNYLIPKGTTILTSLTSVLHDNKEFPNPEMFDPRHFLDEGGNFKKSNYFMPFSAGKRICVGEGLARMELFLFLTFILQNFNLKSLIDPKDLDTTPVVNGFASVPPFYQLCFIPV
Luciferin 4-monooxygenase, sequence (P08659 whole entry): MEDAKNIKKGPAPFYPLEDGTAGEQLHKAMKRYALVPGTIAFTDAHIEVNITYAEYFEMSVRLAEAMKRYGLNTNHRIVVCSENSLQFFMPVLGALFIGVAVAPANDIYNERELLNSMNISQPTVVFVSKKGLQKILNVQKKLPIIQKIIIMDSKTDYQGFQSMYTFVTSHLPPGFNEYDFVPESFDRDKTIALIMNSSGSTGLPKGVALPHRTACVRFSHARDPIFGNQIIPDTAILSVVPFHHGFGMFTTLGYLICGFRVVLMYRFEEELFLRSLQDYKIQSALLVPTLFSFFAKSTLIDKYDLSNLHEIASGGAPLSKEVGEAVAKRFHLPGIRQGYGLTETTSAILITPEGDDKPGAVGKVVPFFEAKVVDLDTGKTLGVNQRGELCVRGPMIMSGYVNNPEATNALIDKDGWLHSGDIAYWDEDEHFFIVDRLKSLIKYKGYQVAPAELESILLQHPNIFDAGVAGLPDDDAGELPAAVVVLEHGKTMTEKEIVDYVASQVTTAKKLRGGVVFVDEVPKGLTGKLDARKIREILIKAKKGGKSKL
Cytochrome P450 2C9, sequence (P11712 whole entry): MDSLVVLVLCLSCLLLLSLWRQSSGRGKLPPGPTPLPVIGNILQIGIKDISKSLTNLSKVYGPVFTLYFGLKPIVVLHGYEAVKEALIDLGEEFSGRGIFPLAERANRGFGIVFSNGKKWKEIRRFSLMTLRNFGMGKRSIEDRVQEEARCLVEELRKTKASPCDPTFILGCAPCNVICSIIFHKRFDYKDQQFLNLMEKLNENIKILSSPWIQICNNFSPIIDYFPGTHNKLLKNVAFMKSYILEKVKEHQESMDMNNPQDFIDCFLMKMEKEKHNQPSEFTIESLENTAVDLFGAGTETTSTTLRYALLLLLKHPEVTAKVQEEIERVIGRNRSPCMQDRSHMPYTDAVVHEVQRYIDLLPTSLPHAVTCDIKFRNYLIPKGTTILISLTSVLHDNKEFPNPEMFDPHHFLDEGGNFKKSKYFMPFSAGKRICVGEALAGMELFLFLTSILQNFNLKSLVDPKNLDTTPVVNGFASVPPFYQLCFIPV
Large T antigen, sequence (P03070 whole entry, the tested form may be a part): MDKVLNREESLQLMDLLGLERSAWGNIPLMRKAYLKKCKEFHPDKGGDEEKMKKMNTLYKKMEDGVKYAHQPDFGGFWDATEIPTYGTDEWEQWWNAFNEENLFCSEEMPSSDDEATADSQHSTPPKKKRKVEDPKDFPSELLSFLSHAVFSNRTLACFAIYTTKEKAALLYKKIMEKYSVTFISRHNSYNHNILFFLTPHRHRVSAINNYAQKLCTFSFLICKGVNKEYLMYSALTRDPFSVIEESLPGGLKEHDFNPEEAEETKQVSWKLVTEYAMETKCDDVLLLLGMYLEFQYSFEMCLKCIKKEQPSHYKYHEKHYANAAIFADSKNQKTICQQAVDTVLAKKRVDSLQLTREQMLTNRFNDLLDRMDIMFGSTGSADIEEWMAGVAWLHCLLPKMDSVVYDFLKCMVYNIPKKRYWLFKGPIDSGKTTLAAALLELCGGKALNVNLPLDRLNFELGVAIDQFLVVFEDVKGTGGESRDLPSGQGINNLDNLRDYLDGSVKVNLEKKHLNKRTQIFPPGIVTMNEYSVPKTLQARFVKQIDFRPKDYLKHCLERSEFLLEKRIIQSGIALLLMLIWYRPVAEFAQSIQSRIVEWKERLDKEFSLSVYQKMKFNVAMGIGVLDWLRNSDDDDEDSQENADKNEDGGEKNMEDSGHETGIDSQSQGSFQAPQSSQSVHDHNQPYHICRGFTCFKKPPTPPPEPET
Cytochrome P450 3A4, sequence (P08684 whole entry): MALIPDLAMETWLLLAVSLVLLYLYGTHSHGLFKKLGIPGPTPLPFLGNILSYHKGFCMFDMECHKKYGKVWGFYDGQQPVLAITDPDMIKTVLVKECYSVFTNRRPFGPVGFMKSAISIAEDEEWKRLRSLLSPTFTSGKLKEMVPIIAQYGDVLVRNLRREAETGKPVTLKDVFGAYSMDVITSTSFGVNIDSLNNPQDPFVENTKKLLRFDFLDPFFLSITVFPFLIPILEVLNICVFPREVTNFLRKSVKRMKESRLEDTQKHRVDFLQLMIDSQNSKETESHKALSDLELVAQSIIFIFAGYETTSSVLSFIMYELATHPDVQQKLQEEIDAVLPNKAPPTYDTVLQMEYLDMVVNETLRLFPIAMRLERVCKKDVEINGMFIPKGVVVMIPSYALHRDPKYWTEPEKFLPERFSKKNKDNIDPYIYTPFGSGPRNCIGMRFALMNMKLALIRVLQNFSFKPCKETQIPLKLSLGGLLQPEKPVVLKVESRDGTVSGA

Cc1ccc(-c2nnc(CCC(=O)NCC3C4CC5CC(C4)CC3C5)o2)s1 (centres undefined)
EC50 [1]: 17.6 µM (active) | EC50 [2]: 11.6 µM (active) | EC50 [3]: 20.2 µM (active)

Cc1ccc(-c2nc3ncccn3c2NC(=O)C2CC2)cc1
AC50 [4]: inconclusive | AC50 [5]: 15.8 µM (inconclusive) | EC50 [6]: > 112 µM (not active) | EC50 [7]: > 112 µM (not active)

Cc1ccccc1N1C(=O)NC(=O)/C(=C\c2cc(C)n(C)c2C)C1=O
EC50 [8]: > 300 µM (not active) | EC50 [9]: > 300 µM (not active)

COc1ccccc1/C=C(/C(=O)OCC(=O)Nc1ccccc1C)c1ccccc1
IC50 [10]: 9.36 µM (not active)

O=C(NC1CC1)C1Nc2ccc(OC(F)(F)F)cc2C2C=CCC12 (centres undefined)
EC50 [8]: > 300 µM (not active) | EC50 [9]: > 300 µM (not active)

COC(=O)c1ccc(NC(S)=NC2CC3CCC2C3)cc1 (centres undefined)
IC50 [10]: 16.4 µM (active)

COc1ccccc1OCCN1C(=O)S/C(=C\c2ccco2)C1=O
AC50 [11]: inconclusive

Cc1ccccc1N1C(=O)NC(=O)/C(=C/Nc2ccc(N(C)C)cc2)C1=O
AC50 ([4]; read-out: AC50): 22.4 µM (inconclusive) | AC50 [12]: 0.398 µM (inconclusive) | IC50 [13]: 6.73 µM (active)

O=C(N/N=C/C(Br)=C/c1ccccc1)C1CC1
EC50 [1]: 60.3 µM (active) | EC50 [2]: 18.7 µM (active) | EC50 [3]: 15.8 µM (active)

CCOC(=O)C(OC(=O)c1sc(=S)n(C)c1C)C(C)=O (centres undefined)
EC50 [6]: > 112 µM (not active) | EC50 [7]: > 112 µM (not active)

CC(=O)NS(=O)(=O)c1ccc(/N=c2\ssc3c2-c2cc(C)ccc2NC3(C)C)cc1
IC50 [13]: > 100 µM (active)

Cc1ccc(C(=O)NC(=S)Nc2cc(C(F)(F)F)ccc2Cl)cc1
AC50 [4]: inconclusive | AC50 [5]: 0.562 µM (inconclusive) | AC50 [11]: inconclusive

COc1ccc(N2CCC(CN=C(S)Nc3ccc(C)cc3C)C2)cc1 (centres undefined)
IC50 [13]: 11 µM (active)

O=C(NC1CCCC1)c1csc2c1CCCC2
EC50 [6]: > 112 µM (not active) | EC50 [7]: > 112 µM (not active)

CCCCNC(=O)c1ccccc1C(=O)NCCCC
IC50 [10]: < 0.4 µM (not active)

CCOc1cc(/C=N/NC(=O)c2ccncc2)ccc1OS(C)(=O)=O
IC50 [10]: < 0.4 µM (not active)

O=C(NCCCN1CCOCC1)C1Nc2ccc(OC(F)(F)F)cc2C2C=CCC12 (centres undefined)
EC50 [8]: > 300 µM (not active) | EC50 [9]: > 300 µM (not active)

CC(=O)C1=C(C)NC(SCC(=O)c2ccccc2)=C(C#N)C1c1ccco1 (centres undefined)
EC50 [1]: 26.5 µM (active) | EC50 [2]: 11 µM (active) | EC50 [3]: 19.5 µM (active)

COc1cccc(-n2cnc3sc(-c4ccccc4)cc3c2=O)c1
EC50 [1]: 0.124 µM (active) | EC50 [2]: 0.185 µM (active) | EC50 [3]: 0.136 µM (active)

Cc1ccc(C(=O)C2CCN(CC(=O)Nc3ccc4c(c3)OCCO4)CC2)cc1
EC50 [6]: > 112 µM (not active) | EC50 [7]: > 112 µM (not active)

CC1OC(Oc2c(-c3cc(O)c(O)c(O)c3)oc3cc(O)cc(O)c3c2=O)C(O)C(O)C1O (centres undefined)
EC50 [8]: 17.2 µM (active) | EC50 [9]: 18 µM (active)

C[C@@H]1CN([C@@H](C)CO)S(=O)(=O)c2ccc(-c3cccc(F)c3)cc2O[C@@H]1CN(C)S(=O)(=O)c1ccc(F)cc1
AC50 [14]: 24.2 µM (active) | AC50 [15]: 1.34 µM (active)

CCC1CCCCN1CCCNC(=O)Cn1c2ccccc2c2nc(=O)cc(C)n21 (centres undefined)
EC50 [1]: > 120 µM (not active) | EC50 [2]: > 120 µM (not active) | EC50 [3]: > 120 µM (not active)

CN(C)c1nn(C(=O)Nc2ccc(Cl)cc2Cl)cc1-c1ccccc1
IC50 [13]: 38 µM (active)

COc1ccc(-c2nc3cnc(N4CCOCC4)nc3n(C[C@H]3CCCO3)c2=O)cc1
AC50 [5]: 5.01 µM (inconclusive) | AC50 [11]: inconclusive

COc1ccc(COC(=O)Nc2cc3c(C(F)(F)F)nn(C)c3s2)cc1
IC50 [10]: 14 µM (active)

CCOC(=O)c1ccc(NC(=O)Cn2c(-c3nonc3N)nc3ccccc32)cc1
IC50 [10]: 18.8 µM (not active)

CCn1cc(NC(=O)Nc2ccccc2C(=O)OC)c(C(N)=O)n1
EC50 [6]: > 112 µM (not active) | EC50 [7]: > 112 µM (not active)

NS(=O)(=O)c1cc(Br)c(/N=N\c2ccc(O)c3ncccc23)c(Br)c1
AC50 [5]: 1.26 µM (inconclusive) | AC50 [11]: inconclusive

Cc1nc(NC(=O)c2ccccc2)sc1-c1csc(Nc2ccc(Cl)cc2)n1
AC50 [5]: 7.08 µM (inconclusive) | AC50 [11]: inconclusive

CCC(=O)N1CCc2nc(-c3ccccc3)sc2C1
EC50 [1]: 20.4 µM (active) | EC50 [2]: 7.33 µM (active) | EC50 [3]: 46.3 µM (active)

COc1cc(C2C(C#N)=C(N)OC3=C2C(=O)CC(C)(C)C3)ccc1OCCN1CCOCC1 (centres undefined)
EC50 [8]: > 300 µM (not active) | EC50 [9]: > 300 µM (not active)

Cc1ccc2nc(N3CCN(C(=O)c4ccco4)CC3)sc2c1
EC50 [1]: > 120 µM (not active) | EC50 [2]: 5.76 µM (active) | EC50 [3]: 34.9 µM (active)

COc1ccc(C(=O)CSc2nc(N)nc(SC)c2C#N)cc1
IC50 [10]: 17.3 µM (not active)

CC1CN=C(Nc2ccc(N(C)C)cc2)S1 (centres undefined)
IC50 [13]: 9.27 µM (active)

Cc1ccc(NC(=O)CN2CCC(Cc3ccccc3)CC2)cc1S(=O)(=O)N(C)C
IC50 [10]: 27.3 µM (not active)

CN1C(=O)c2cc(NC(=O)c3cscn3)ccc2OC[C@H]2O[C@H](CC(=O)NCc3ccc(Cl)c(Cl)c3)CC[C@H]21
AC50 [14]: 41.8 µM (active) | AC50 [15]: 11.3 µM (active)

O=C(OCCc1ccccc1)c1cc(O)c(O)c(O)c1
EC50 [8]: 29.6 µM (active) | IC50 [13]: > 100 µM (active) | EC50 [9]: > 300 µM (not active)

c1ccc2[nH]c(-c3ccc4c(c3)OCO4)nc2c1
EC50 [6]: 1.16 µM (active) | EC50 [7]: 6.52 µM (active)

COc1ccc(C(=O)COC(=O)c2cc(O)nc3ccccc23)c(OC)c1
EC50 [1]: 54 µM (active) | EC50 [2]: 8.87 µM (active) | EC50 [3]: 20.7 µM (active)

CCOC(=O)c1ccc(/N=c2\scc(C)n2CC)cc1
IC50 [10]: > 50 µM (not active)

CC(Sc1nc2ccccc2c(=O)n1C)C(=O)Nc1ccc2c(c1)OCCO2 (centres undefined)
AC50 [16]: 9.21 µM (active) | AC50 [17]: > 70 µM (inactive) | AC50 [18]: 1.94 µM (active)
